According to patent EP3747280A1, “ANTIMICROBIAL COMBINATION FOR USE IN ANIMAL FEEDS” (Lucta, S.A., priority 2019, dated 2020):

Columns and labels:
[1] = Stability test in an animal feed (GC/FID quantification of the active ingredient in fish feed over storage time); type: physicochemical
Text: The animal feed used was a commercial fish feed having a 52 wt% of crude protein.
Two 200 g samples of the commercial feed were taken for the application of each of the mixtures A and B.
A sterile plastic bag was spread out on a laboratory tray, and 200 g of the commercial feed was deposited on it. With the help of a liquid diffuser bottle, by means of short pulsations, 3 g of the mixture A, previously diluted to 10 wt% in vegetable oil, was applied to the feed.
The bag was closed and shaken, and the feed additive mixture was spread by manual friction in order to distribute it homogeneously all over the feed. Then, the feed containing the mixture A was put in a plastic container. The same process was carried out with mixture B instead of mixture A.
Each of these feed samples (200 g) containing mixture A or mixture B were divided into two and put into sterile cans (100 g of feed in each) for the different thermal treatments at room temperature (RT) and freezer temperature (FT).
Thus, an analytical method by capillary gas chromatography (high separation efficiency) and flame ionization detection (high sensitivity) ([…]) was developed. An Accelerated Solvent Extractor (ASE) extraction was made on the experimental feed samples and residual fats were eliminated from the chromatographic column using backflush.
In a mortar, about 5 g of the experimental feed sample were exactly weighted. 3 g of Celite 545 were added and mixed. The mixture was put in an ASE extraction cell (22 ml) and the sample was extracted with an 80%/20% hexane/acetone mixture at 100 °C and 1500 psi with 5 successive cycles (heating time 5 min, flush 40%, purge 60s) using an ASE equipment.
After extraction, enough anhydrous sodium sulfate was added to the extracts to absorb remaining water and solid residues. All the liquid extract was collected in a 50 ml beaker. The sodium sulfate was cleaned from the extraction tubes with some ml of the 80% /20% hexane/acetone mixture and added to the beaker. It was made up with the 80% /20% hexane/acetone mixture and mixed thoroughly. In a 2 ml glass vial to the GC/FID about 1 ml of the extract was taken. When some precipitate appeared, it was centrifuged at 6000 rpm 5 min.
The same protocol shown above was performed with the experimental feed samples but adding previously 0.2 ml of the 10,000 mg/l standard to 5 g of feed in the ASE extraction cell.
The standards, the experimental feed sample extract and its corresponding spiked sample extract were injected in the GC/FID equipment, minimum by duplicate, using the chromatographic conditions given above. The quantity spiked to the feed sample was at least the same quantity expected in the feed sample. If the area of the spiked sample didn't double at least the area of the corresponding non spiked sample, a high concentration of standard was used to spike the sample.
Results were calculated by standard addition method, taking into account the weight of the feed samples extracted and the standard concentrations.

[2] = in animal feeds, in 20 to 40 days; higher depending on the thermal treatment of feed; cited from earlier work
Vibrio campbellii = test: MIC assay, positive control; type: cell-based; details: positive control of the MIC test
Experimental: It was tested whether the experimental products (i.e. comparative examples 1 and 2, and examples 1 to 3) could inactivate diverse shrimp or fish and shrimp bacterial pathogens when directly interacting under an in vitro setting.
Bacterial growth was evaluated by visual and optical density.

C(=C\C1OCCO1)/c1ccccc1 [EAAC, cinnamaldehyde ethylene glycol acetal]
Amount of active agent ([1]; feed containing AC and EAAC 50:50, FT, 7 days): 269 mg/kg
Amount of active agent ([1]; feed containing AC and EAAC 50:50, FT, 14 days): 220 mg/kg
Amount of active agent ([1]; feed containing AC and EAAC 50:50, FT, 21 days): 265 mg/kg
Amount of active agent ([1]; feed containing AC and EAAC 50:50, FT, 28 days): 238 mg/kg
Amount of active agent ([1]; feed containing AC and EAAC 50:50, FT, 35 days): 197 mg/kg
Amount of active agent ([1]; feed containing AC and EAAC 50:50, FT, 42 days): 224 mg/kg
Amount of active agent ([1]; feed containing AC and EAAC 50:50, RT, 7 days): 288 mg/kg
Amount of active agent ([1]; feed containing AC and EAAC 50:50, RT, 14 days): 236 mg/kg
Amount of active agent ([1]; feed containing AC and EAAC 50:50, RT, 21 days): 258 mg/kg
Amount of active agent ([1]; feed containing AC and EAAC 50:50, RT, 28 days): 237 mg/kg
Amount of active agent ([1]; feed containing AC and EAAC 50:50, RT, 35 days): 191 mg/kg
Amount of active agent ([1]; feed containing AC and EAAC 50:50, RT, 42 days): 229 mg/kg
Amount of active agent ([1]; feed containing a mixture of AC and EAAC, molar ratio 50:50, stored at freezer temperature (FT), 0 days): 264 mg/kg
Amount of active agent ([1]; feed containing a mixture of AC and EAAC, molar ratio 50:50, stored at room temperature (RT), 0 days): 264 mg/kg

O=CC=Cc1ccccc1 [AC, cinnamaldehyde]
losses [2]: 30-50%

gentamycin
inhibition at the expected concentration (Vibrio campbellii): 4 mg/L
